The values below come from US7358402B2, “Reduced coenzyme Q10 crystal with excellent stability and composition containing said reduced coenzyme Q10 crystal” (Kaneka Corporation, priority 2003, dated 2008).

This data set in a line: Plasma concentration of reduced coenzyme Q10 after oral administration to rats. It counts as in vivo. Conditions: SD rats, male, oral 30 mg/kg as suspension with rapeseed oil (1:2) in 0.2% Tween 80. How it is done: Using the reduced coenzyme Q10 obtained in Example 1 and the reduced coenzyme Q10 obtained in Comparative Example 1, the blood concentrations of reduced coenzyme Q10 were measured when they were orally administered to rats. Each samples and rapeseed oil were added to aqueous solution of 0.2% Tween 80 to prepare suspension in which reduced coenzyme Q10:rapeseed oil=1:2. The suspension was orally administered to SD rats (male, 6 rats in one group) forcibly using a stomach sonde in 30 mg (reduced coenzyme Q10)/kg (rat body weight). Thereafter, the blood was sampled with time, and the plasma concentration of reduced coenzyme Q10 was measured by HPLC.

Consider `COc1c(O)c(C)c(C/C=C(\C)CC/C=C(\C)CC/C=C(\C)CC/C=C(\C)CC/C=C(\C)CC/C=C(\C)CC/C=C(\C)CC/C=C(\C)CC/C=C(\C)CCC=C(C)C)c(O)c1OC` [Crystals obtained in Example 1, reduced coenzyme Q10], for which the “Tmax, time to maximum plasma concentration” value (listed as Reduced coenzyme Q10 crystals obtained in Example 1, 30 mg/kg) came out at 4 h.

As for `COc1c(O)c(C)c(C/C=C(\C)CC/C=C(\C)CC/C=C(\C)CC/C=C(\C)CC/C=C(\C)CC/C=C(\C)CC/C=C(\C)CC/C=C(\C)CC/C=C(\C)CCC=C(C)C)c(O)c1OC` [Crystals obtained in Comparative Example 1] [reduced coenzyme Q10], for the setting “listed as Reduced coenzyme Q10 crystals obtained in Comparative Example 1, 30 mg/kg”, the “Tmax, time to maximum plasma concentration” value turned out to be 8 h.
